In one data set the test system is mice. Put plainly: Acute toxicity test. The data set is classed as in vivo. Conditions: 500 mg/kg body weight, three mice. Here is the method: Compound 28 was orally administered to three mice at a dose of 500 mg/kg body weight, the maximum amount considered to be prescribed for the mouse in one dose.
A further data set has as its target Aldose reductase II (Homo sapiens, UniProt P15121). Put plainly: Aldose reductase inhibitory activity (NADPH decrease at 340 nm, DL-glyceraldehyde substrate). The data set is classed as biochemical. As to conditions: pH 6.2, 100 mM DL-glyceraldehyde, 1.5 mM NADPH. Here is the method: A reaction solution containing a 200 mM of a phosphate buffer solution (pH 6.2), 1.5 mM of reduced nicotinamide adenine dinucleotide phosphate (NADPH), 1 mg/ml of bovine serum albumin, a test compound, and 100 mM of DL-glyceraldehyde as a substrate was prepared. Aldose reductase II (5.1×10^−1 unit/ml) was added to the solution to initiate the reaction, and the amount of NADPH reduced by the reaction was measured at an absorption wavelength of 340 nm using a spectrophotometer.

For data set [1], the system named is mouse leukemia adriamycin sensitive strain P388/S. Put plainly: Cancer cell sensitivity test (MTT). The data set is classed as cell-based. Conditions: Mus musculus; P388/S cells, test compound 25 μM, 44 hours, MTT-formazan at 540 nm; read-out: INHIBITORY RATE (%). Here is the method:
Cells of mouse leukemia adriamycin sensitive strain P388/S were cultured in an RPMI1640 culture medium (5% fetal bovine serum, […] 2-mercaptoethanol, 30 μM kanamycin) under conditions of 37° C. and 5% CO2, and used for a compound sensitivity test.
The cell suspension (1.35×10^4 cells/ml) was added to a 96 well plate, 100 μl per well.
After culturing under the conditions of 37° C. and 5% CO2 for 16 hours, a solution of the test compound dissolved in DMSO to a concentration of 25 μM was added, followed by continuation of culture for a further 44 hours, while only DMSO was added to a control to continue the culture.
After culturing, […] (PBS, pH 7.4), was added in an amount of 25 μl/well, followed by incubation for four hours to produce MTT-formazan.
After removing supernatant by aspiration, 200 μl of DMSO was added and the absorbance of MTT-formazan at 540 nm was measured.

As usually defined, the IC50 is the concentration that gives 50% inhibition. Read a high IC50 as a need for much substance. Regarding `O=C(O)Cn1c2c(c3c(F)cc(F)cc31)CCN(Cc1ccccc1)C2=S` [Compound 28, (2-Benzyl-5,7-difluoro-1-thioxo-1,2,3,4-tetrahydro-β-carbolin-9-yl)acetic acid], in the data set on mice, the “Survival after single oral dose” value is “all of the three mice survived”. In addition, in the data set on mice (oral), the “Abnormalities in internal organs, action, etc.” value is listed as “no abnormalities being observed”. The same compound returned an IC50 on Aldose reductase II of 2.5 µM.

Compound `O=C(O)Cn1c2c(c3cc(Cl)ccc31)CCOC2=O` [Compound 30, (6-Chloro-1-oxo-3,4-dihydro-1H-pyrano[3,4-b]indol-9-yl)acetic acid] yielded a half-maximal inhibitory concentration (IC50) on Aldose reductase II of 12.4 µM. In data set [1], the inhibition at 25 µM worked out at 31.1%.

As for `O=C(O)Cn1c2c(c3ccccc31)CCN(C(=O)c1cc(F)c(F)c(F)c1)C2=O` [Compound 52, [2-(3,4,5-Trifluorobenzoyl)-1-oxo-1,2,3,4-tetrahydro-β-carbolin-9-yl]acetic acid], on Aldose reductase II, the IC50 amounted to 55.3 µM. Also, the inhibition at 25 µM in data set [1] amounted to 34.7%.

Source of the values: patent US8198447B2, “Fused tricyclic compound having aldose reductase inhibitory activity” (National University Corporation University of Toyama, priority 2007, dated 2012).
